Measurements: paper PMC5302928, “[^64Cu]XYIMSR-06: A dual-motif CAIX ligand for PET imaging of clear cell renal cell carcinoma” (Oncotarget, 2016)
“And” between values parts separate entries of the source, which are not always exact repeats. Identical values can stand only once.

How the values were obtained:
[1] = test system: CAIX-expressing SK-RC-52 ccRCC tumor xenografts; assay: Biodistribution of [^64Cu]XYIMSR-06 in mice bearing SK-RC-52 xenografts; format: in vivo
Method: Animal experiments were performed in accordance with protocols approved by the Johns Hopkins Animal Care and Use Committee (ACUC). Six-week-old female NOD/SCID mice were purchased from the Animal Resource Core of the Sidney Kimmel Comprehensive Cancer Center of Johns Hopkins and were subcutaneously injected in the upper right flank with 1 × 10^6 SK-RC-52 cells in RPMI 1640 GlutaMAX™ media (Life Technologies, Frederick, MD) supplemented with 1% fetal bovine serum (FBS). Mice were monitored for tumor size and used for PET/CT imaging when the size of the tumor reached 100 mm^3.
Mice bearing SK-RC-52 xenografts within the upper right flank were injected intravenously with 740 kBq (20 μCi) of [^64Cu]XYIMSR-06 in 200 μL of PBS. For in vivo competition (binding specificity) studies, tumor-bearing mice were injected with 740 kBq (20 μCi) of [^64Cu]XYIMSR-06 and 200 nmole of 1 in 200 μL of PBS concurrently. At specific times after injection (1 h, 4 h, 8 h and 24 h), mice (n = 5) were sacrificed by cervical dislocation with blood immediately collected by cardiac puncture. Heart, lungs, pancreas, spleen, fat, brain, muscle, small intestines, liver, stomach, kidney, urinary bladder, and tumor were also collected. Each organ was weighed and the tissue radioactivity was measured with an automated gamma counter (1282 Compugamma CS, Pharmacia/ LKBNuclear, Inc., Mt. Waverly, Vic. Australia). The percentage of injected dose per gram of tissue (%ID/g) was calculated by comparison with samples of a standard dilution of the initial dose. All measurements were corrected for radioactive decay. Data are expressed as mean ± standard deviation (SD).

[2] = In vivo metabolism study, plasma radio-TLC; parameters: species or system NSG mice; details: for Percentage of intact radiotracer in plasma: 7.4 MBq i.v.
Method: PET acquisition times were: 5 min/bed (1 h) post-injection were developed using a mobile phase consisting of 45% of [Al18F]XYIMSR-04. PET images were co-registered acetonitrile, 55% water and 0.1% trifluoroacetic acid. The with the corresponding 360-slice CT images. Imaging TLC plate was dried and exposed to Kodak Biomax x-ray datasets were reconstructed using the 3D-FORE/2D-OSEM film (Fisher Scientific). Standard solutions had Rf value of iterative algorithm with 2 iterations and 16 subsets, using 0.6. The intensity of bans on the film were calculated with the manufacturer ’s software. Display of images utilized the Image J software (NIH, Bethesda, MD). The percentages Amide software (Dice Holdings, Inc. NY). The 1 h image of intact [64Cu]XYIMSR-06 in plasma were 86.2%, 98.3, is shown below (Supplementary Figure S2): and 100% for 0.5h, 1h, and 2h plasma samples, respectively.
Metabolism study REFERENCES
In vivo metabolism of [64Cu]XYIMSR-06 in NSG 1. Wichert M, Krall N, Decurtins W, Franzini RM, Pretto mice intravenously (tail vein) with 7.4 MBq (200 μCi) F, Schneider P, Neri D, Scheuermann J. Dual-display of [64Cu]XYIMSR-06 in 200 µL of PBS (pH = 7.0). One of small molecules enables the discovery of ligand pairs mouse was euthanized at 0.5, 1, and 2hr time points and facilitates affinity maturation. Nature chemistry. plasma was prepared by centrifugation of whole blood 2015;7:241-9. for 15 minutes at 2,500xg at 4°C. 5 uL of the plasma 2. D’Souza CA, McBride WJ, Sharkey RM, Todaro LJ, samples and control (7.4 kBq of [64Cu]XYIMSR-06) were Goldenberg DM. High-yielding aqueous 18F-labeling of spotted onto silica gel 60 RP-18 F254S glass TLC plates peptides via Al18F chelation. Bioconjugate chemistry.
(EMD Millipore Corp., Billerica, MA) and the plates 2011;22:1793-803. […]

[3] = 8 h+Block (co-injected 200 nmole of 1)
[4] = 24 h+Block (co-injected 200 nmole of 1)
[5] = one phase exponential decay fit

CC(CCC(=O)NC(CC(=O)NC(CC(=O)NC(CCCCn1cc(CCCC(=O)Nc2nnc(S(N)(=O)=O)s2)nn1)C(=O)NCCOCCOCCNC(=S)Nc1ccc(CC2CN(CC(=O)O)CCN(CC(=O)[O-])CCN2CC(=O)[O-])cc1)C(=O)O)C(=O)O)(c1ccc(O)cc1)c1ccc(O)cc1.[64Cu+2] (stereo not shown) [[^64Cu]XYIMSR-06]
Bladder uptake ([1]; 1 h): 11.12±6.33 %ID/g
Blood uptake ([1]; 1 h): 0.66±0.05 %ID/g
Brain uptake ([1]; 1 h): 1.46±2.23 %ID/g
Fat uptake ([1]; 1 h): 0.80±0.17 %ID/g
Heart uptake ([1]; 1 h): 3.41±0.79 %ID/g
Kidney (kid) uptake ([1]; 1 h): 33.65±3.91 %ID/g
Liver uptake ([1]; 1 h): 3.25±0.97 %ID/g
Lung uptake ([1]; 1 h): 25.52±3.35 %ID/g
Muscle (mm) uptake ([1]; 1 h): 1.28±0.27 %ID/g
Pancreas uptake ([1]; 1 h): 2.94±0.24 %ID/g
Sm. intestine uptake ([1]; 1 h): 7.35±0.78 %ID/g
Spleen uptake ([1]; 1 h): 0.36±0.08 %ID/g
Stomach uptake ([1]; 1 h): 14.80±2.27 %ID/g
Tumor uptake ([1]; 1 h): 14.5 %ID/g and 14.47±2.69 %ID/g
Tumor/kid (kidney) ratio ([1]; 1 h): 0.4±0.1
Tumor/mm (muscle) ratio ([1]; 1 h): 10.8±3.7
Bladder uptake ([1]; 4 h): 17.05±8.86 %ID/g
Blood uptake ([1]; 4 h): 0.33±0.06 %ID/g
Brain uptake ([1]; 4 h): 0.29±0.06 %ID/g
Fat uptake ([1]; 4 h): 0.52±0.29 %ID/g
Heart uptake ([1]; 4 h): 1.78±0.33 %ID/g
Kidney (kid) uptake ([1]; 4 h): 19.99±2.88 %ID/g
Liver uptake ([1]; 4 h): 2.18±0.57 %ID/g
Lung uptake ([1]; 4 h): 12.03±1.61 %ID/g
Muscle (mm) uptake ([1]; 4 h): 0.70±0.18 %ID/g
Pancreas uptake ([1]; 4 h): 1.36±0.19 %ID/g
Sm. intestine uptake ([1]; 4 h): 4.15±0.69 %ID/g
Spleen uptake ([1]; 4 h): 0.24±0.04 %ID/g
Stomach uptake ([1]; 4 h): 8.19±0.97 %ID/g
Tumor uptake ([1]; 4 h): 19.3 %ID/g and 19.31±4.51 %ID/g
Tumor/Blood ratio ([1]; 4 h): 57.7±9.3
Tumor/kid (kidney) ratio ([1]; 4 h): 1.0±0.1
Tumor/mm (muscle) ratio ([1]; 4 h): 29.4±9.9
Bladder uptake ([1]; 8 h): 7.43±7.72 %ID/g
Blood uptake ([1]; 8 h): 0.13±0.02 %ID/g
Brain uptake ([1]; 8 h): 0.24±0.06 %ID/g
Fat uptake ([1]; 8 h): 0.28±0.27 %ID/g
Heart uptake ([1]; 8 h): 0.65±0.10 %ID/g
Kidney (kid) uptake ([1]; 8 h): 8.14±1.15 %ID/g
Liver uptake ([1]; 8 h): 0.99±0.22 %ID/g
Lung uptake ([1]; 8 h): 4.64±0.58 %ID/g
Muscle (mm) uptake ([1]; 8 h): 0.21±0.05 %ID/g
Pancreas uptake ([1]; 8 h): 0.47±0.21 %ID/g
Sm. intestine uptake ([1]; 8 h): 1.98±0.14 %ID/g
Spleen uptake ([1]; 8 h): 0.18±0.02 %ID/g
Stomach uptake ([1]; 8 h): 4.02±0.53 %ID/g
Tumor uptake ([1]; 8 h): 16.74±1.58 %ID/g
Tumor/Blood ratio ([1]; 8 h): 129.6±18.8
Tumor/kid (kidney) ratio ([1]; 8 h): 2.1 and 2.1 ± 0.3 and 2.1±0.26
Tumor/mm (muscle) ratio ([1]; 8 h): 84.3±21.0
Bladder uptake [1, 3]: 1.45±1.53 %ID/g
Blood uptake [1, 3]: 0.08±0.01 %ID/g
Brain uptake [1, 3]: 0.04±0.01 %ID/g
Fat uptake [1, 3]: 0.05±0.01 %ID/g
Heart uptake [1, 3]: 0.16±0.03 %ID/g
Kidney (kid) uptake [1, 3]: 1.82±0.39 %ID/g
Liver uptake [1, 3]: 0.55±0.08 %ID/g
Lung uptake [1, 3]: 0.77±0.14 %ID/g
Muscle (mm) uptake [1, 3]: 0.05±0.02 %ID/g
Pancreas uptake [1, 3]: 0.14±0.03 %ID/g
Sm. intestine uptake [1, 3]: 0.38±0.06 %ID/g
Spleen uptake [1, 3]: 0.14±0.02 %ID/g
Stomach uptake [1, 3]: 0.69±0.18 %ID/g
Tumor uptake [1, 3]: 2.39±0.24 %ID/g
Tumor/Blood ratio [1, 3]: 32.0±3.8
Tumor/kid (kidney) ratio [1, 3]: 1.3±10.2
Tumor/mm (muscle) ratio [1, 3]: 53.0±12.6
Effect of co-injection of 200 nmole of 1 on tumor uptake (binding specificity) ([1]; 8 h and 24 h): blocked tumor uptake
All other tumor-to-organ ratios tested (other than kidney and lung) ([1]; 24 h): ≥ 10
Bladder uptake ([1]; 24 h): 0.34±0.09 %ID/g
Brain uptake ([1]; 24 h): 0.13±0.02 %ID/g
Fat uptake ([1]; 24 h): 0.03±0.01 %ID/g
Heart uptake ([1]; 24 h): 0.12±0.03 %ID/g
Kidney (kid) uptake ([1]; 24 h): 0.90±0.12 %ID/g
Liver uptake ([1]; 24 h): 0.38±0.03 %ID/g
Lung uptake ([1]; 24 h): 1.27±0.38 %ID/g
Muscle (mm) uptake ([1]; 24 h): 0.02±0.01 %ID/g
Pancreas uptake ([1]; 24 h): 0.21±0.29 %ID/g
Sm. intestine uptake ([1]; 24 h): 0.47±0.03 %ID/g
Spleen uptake ([1]; 24 h): 0.09±0.01 %ID/g
Stomach uptake ([1]; 24 h): 0.65±0.04 %ID/g
Tumor uptake ([1]; 24 h): 6.2 %ID/g and 6.23±1.41 %ID/g
Tumor-to-lung ratio ([1]; 24 h): 4.9
Tumor/Blood ratio ([1]; 24 h): 142.6±115.8
Tumor/kid (kidney) ratio ([1]; 24 h): 7.1 and 7.1±2.5
Bladder uptake [1, 4]: 0.45±0.50 %ID/g
Blood uptake [1, 4]: 0.01±0.08 %ID/g
Brain uptake [1, 4]: 0.02±0.01 %ID/g
Fat uptake [1, 4]: 0.01±0.01 %ID/g
Heart uptake [1, 4]: 0.08±0.01 %ID/g
Kidney (kid) uptake [1, 4]: 0.48±0.09 %ID/g
Liver uptake [1, 4]: 0.42±0.04 %ID/g
Lung uptake [1, 4]: 0.29±0.05 %ID/g
Muscle (mm) uptake [1, 4]: 0.04±0.06 %ID/g
Pancreas uptake [1, 4]: 0.07±0.02 %ID/g
Sm. intestine uptake [1, 4]: 0.19±0.05 %ID/g
Spleen uptake [1, 4]: 0.11±0.04 %ID/g
Stomach uptake [1, 4]: 0.29±0.04 %ID/g
Tumor uptake [1, 4]: 1.20±0.47 %ID/g
Tumor/Blood ratio [1, 4]: 27.1±26.7
Tumor/kid (kidney) ratio [1, 4]: 2.4±0.4
Tumor/mm (muscle) ratio [1, 4]: 49.0±28.7
Calculated half-life, Bladder [1, 5]: 116.2 h
Calculated half-life, Blood [1, 5]: 2.153 h
Calculated half-life, Brain [1, 5]: 0.860 h
Calculated half-life, Fat [1, 5]: 4.666 h
Calculated half-life, Heart [1, 5]: 2.293 h
Calculated half-life, Kidney [1, 5]: 3.591 h
Calculated half-life, Liver [1, 5]: 3.375 h
Calculated half-life, Lung [1, 5]: 2.542 h
Calculated half-life, Muscle [1, 5]: 3.035 h
Calculated half-life, Pancreas [1, 5]: 2.330 h
Calculated half-life, SK-RC-52 tumor [1, 5]: 996.1 h
Calculated half-life, Small intestine [1, 5]: 3.322 h
Calculated half-life, Spleen [1, 5]: 4.008 h
Calculated half-life, Stomach [1, 5]: 3.397 h
Radiotracer uptake within liver ([1]; within 24 h): no significant radiotracer uptake within liver
Percentage of intact radiotracer in plasma ([2]; 0.5h plasma sample): 86.2%
Percentage of intact radiotracer in plasma ([2]; 1h plasma sample): 98.3%
Percentage of intact radiotracer in plasma ([2]; 2h plasma sample): 100%
In vivo stability by blood metabolites (radio thin layer chromatography) ([2]; post-injection): stable up to 2 h post-injection
